Target: T1, Tyrosine-protein phosphatase non-receptor type 11 (Homo sapiens, UniProt Q06124)
T1 sequence (Q06124 whole entry): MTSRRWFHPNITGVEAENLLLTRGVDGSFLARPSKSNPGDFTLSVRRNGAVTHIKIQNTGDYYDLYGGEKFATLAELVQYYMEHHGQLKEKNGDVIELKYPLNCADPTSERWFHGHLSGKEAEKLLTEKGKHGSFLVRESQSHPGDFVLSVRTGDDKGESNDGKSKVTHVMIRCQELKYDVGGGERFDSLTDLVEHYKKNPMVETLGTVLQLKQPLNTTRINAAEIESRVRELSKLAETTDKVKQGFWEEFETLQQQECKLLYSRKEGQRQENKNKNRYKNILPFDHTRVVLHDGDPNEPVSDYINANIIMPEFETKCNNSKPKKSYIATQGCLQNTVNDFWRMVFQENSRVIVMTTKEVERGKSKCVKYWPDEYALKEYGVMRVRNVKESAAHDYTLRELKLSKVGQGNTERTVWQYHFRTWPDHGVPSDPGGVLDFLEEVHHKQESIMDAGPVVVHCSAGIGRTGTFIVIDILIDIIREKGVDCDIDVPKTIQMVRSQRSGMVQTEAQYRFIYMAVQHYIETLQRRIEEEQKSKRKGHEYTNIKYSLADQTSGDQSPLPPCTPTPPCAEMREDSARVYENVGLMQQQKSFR
Test: Inhibition Assay: SHP2 is allosterically activated through binding of bis-tyrosyl-phorphorylated peptides to its Src Homology 2 (SH2) domains. The latter activation step leads to the release of the auto-inhibitory interface of SHP2, which in turn renders the SHP2 protein tyrosine phosphatase (PTP) active and available for substrate recognition and reaction catalysis. The catalytic activity of SHP2 was monitored using the surrogate substrate DiFMUP in a prompt fluorescence assay format.The inhibition of SHP2 by compounds of the disclosure (concentrations varying from 0.003-100 μM) was monitored using an assay in which 0.25 nM of SHP2 was incubated with of 0.5 μM of peptide IRS1_pY1172(dPEG8)pY1222 (sequence: H2N-LN(pY)IDLDLV(dPEG8)LST(pY)ASINFQK-amide) After 30-60 minutes incubation at 25° C., the surrogate substrate DiFMUP (Invitrogen, cat #D6567, 100 μM final) was added to the reaction and the conversion of DiFMUP to 6,8-difluoro-7-hydroxyl-4-methyl coumarin (DiFMU) was monitored continuously for 10 minutes with excitation at 355 nm and emission at 460 nm using a microplate reader (PolarStar, BMG).

IC50, < 1000 nM:
CC1(CN)CCN(c2cnc3c(N4CCc5c(C6CC6)cccc54)n[nH]c3n2)CC1
C[C@@H]1CCN(c2n[nH]c3nc(N4CCC5(CC4)CO[C@@H](C)[C@H]5N)cnc23)c2ccc(C(=O)NCc3cccnc3)nc21
C[C@@H]1OCC2(CCN(c3cnc4c(N5CC(=O)N(C)c6cnccc65)n[nH]c4n3)CC2)[C@@H]1N
C[C@@H]1OCC2(CCN(c3cnc4c(N5CCCc6nc(N7CCN(C)C(=O)C7)ccc65)n[nH]c4n3)CC2)[C@@H]1N
C[C@@H]1OCC2(CCN(c3cnc4c(N5CCNc6cnccc65)n[nH]c4n3)CC2)[C@@H]1N
C[C@@H]1OCC2(CCN(c3cnc4c(N5CCCc6c5cccc6S(=O)(=O)N(C)C)n[nH]c4n3)CC2)[C@@H]1N

From ChEMBL document CHEMBL5729619, “Substituted pyrazolo[3,4-b]pyrazines as SHP2 phosphatase inhibitors” (2023)
